Like-named read-outs stand apart in the source and are kept apart here.
Assays:
OVCAR-4 = assay: NCI-60 growth inhibition: OVCAR-4 (Ovarian Cancer); assay type: cell-based, human; conditions: Homo sapiens
NCI-H23 = assay: NCI-60 growth inhibition: NCI-H23 (Non-Small-Cell Lung Cancer); assay type: cell-based, human; conditions: Homo sapiens
M14 = assay: NCI-60 growth inhibition: M14 (Melanoma); assay type: cell-based, human; conditions: Homo sapiens
MCF7 = assay: NCI-60 growth inhibition: MCF7 (Breast Cancer); assay type: cell-based, human; conditions: Homo sapiens
BT-549 = assay: NCI-60 growth inhibition: BT-549 (Breast Cancer); assay type: cell-based, human; conditions: Homo sapiens
NCI-H522 = assay: NCI-60 growth inhibition: NCI-H522 (Non-Small-Cell Lung Cancer); conditions: Homo sapiens, NCI-H522
RPMI-8226 = assay: NCI-60 growth inhibition: RPMI-8226 (Leukemia); assay type: cell-based, human; conditions: Homo sapiens
HOP-92 = assay: NCI-60 growth inhibition: HOP-92 (Non-Small-Cell Lung Cancer); assay type: cell-based, human; conditions: Homo sapiens
TK-10 = assay: NCI-60 growth inhibition: TK-10 (Renal Cancer); assay type: cell-based, human; conditions: Homo sapiens
UO-31 = assay: NCI-60 growth inhibition: UO-31 (Renal Cancer); assay type: cell-based, human; conditions: Homo sapiens
MOLT-4 = assay: NCI-60 growth inhibition: MOLT-4 (Leukemia); assay type: cell-based, human; conditions: Homo sapiens
NCI-H460 = assay: NCI-60 growth inhibition: NCI-H460 (Non-Small-Cell Lung Cancer); assay type: cell-based, human; conditions: Homo sapiens
OVCAR-5 = assay: NCI-60 growth inhibition: OVCAR-5 (Ovarian Cancer); assay type: cell-based, human; conditions: Homo sapiens
OVCAR-8 = assay: NCI-60 growth inhibition: OVCAR-8 (Ovarian Cancer); assay type: cell-based, human; conditions: Homo sapiens
HS 578T = assay: NCI-60 growth inhibition: HS 578T (Breast Cancer); assay type: cell-based, human; conditions: Homo sapiens
LOX IMVI = assay: NCI-60 growth inhibition: LOX IMVI (Melanoma); assay type: cell-based, human; conditions: Homo sapiens
786-0 = assay: NCI-60 growth inhibition: 786-0 (Renal Cancer); assay type: cell-based, human; conditions: Homo sapiens
SW-620 = assay: NCI-60 growth inhibition: SW-620 (Colon Cancer); assay type: cell-based, human; conditions: Homo sapiens
EKVX = assay: NCI-60 growth inhibition: EKVX (Non-Small-Cell Lung Cancer); assay type: cell-based, human; conditions: Homo sapiens
COLO 205 = assay: NCI-60 growth inhibition: COLO 205 (Colon Cancer); assay type: cell-based, human; conditions: Homo sapiens
MDA-MB-231/ATCC = assay: NCI-60 growth inhibition: MDA-MB-231/ATCC (Breast Cancer); assay type: cell-based, human; conditions: Homo sapiens
SK-MEL-28 = assay: NCI-60 growth inhibition: SK-MEL-28 (Melanoma); assay type: cell-based, human; conditions: Homo sapiens
HCT-116 = assay: NCI-60 growth inhibition: HCT-116 (Colon Cancer); conditions: Homo sapiens, HCT-116
HCT-15 = assay: NCI-60 growth inhibition: HCT-15 (Colon Cancer); assay type: cell-based, human; conditions: Homo sapiens
SN12C = assay: NCI-60 growth inhibition: SN12C (Renal Cancer); assay type: cell-based, human; conditions: Homo sapiens
UACC-257 = assay: NCI-60 growth inhibition: UACC-257 (Melanoma); assay type: cell-based, human; conditions: Homo sapiens
PC-3 = assay: NCI-60 growth inhibition: PC-3 (Prostate Cancer); assay type: cell-based, human; conditions: Homo sapiens
SK-MEL-5 = assay: NCI-60 growth inhibition: SK-MEL-5 (Melanoma); assay type: cell-based, human; conditions: Homo sapiens
MALME-3M = assay: NCI-60 growth inhibition: MALME-3M (Melanoma); assay type: cell-based, human; conditions: Homo sapiens
CAKI-1 = assay: NCI-60 growth inhibition: CAKI-1 (Renal Cancer); assay type: cell-based, human; conditions: Homo sapiens
HT29 = assay: NCI-60 growth inhibition: HT29 (Colon Cancer); assay type: cell-based, human; conditions: Homo sapiens, HT-29
T-47D = assay: NCI-60 growth inhibition: T-47D (Breast Cancer); assay type: cell-based, human; conditions: Homo sapiens, T47D
K-562 = assay: NCI-60 growth inhibition: K-562 (Leukemia); assay type: cell-based, human; conditions: Homo sapiens, K562
SF-539 = assay: NCI-60 growth inhibition: SF-539 (CNS Cancer); assay type: cell-based, human; conditions: Homo sapiens
U251 = assay: NCI-60 growth inhibition: U251 (CNS Cancer); assay type: cell-based, human; conditions: Homo sapiens, U-251
MDA-MB-468 = assay: NCI-60 growth inhibition: MDA-MB-468 (Breast Cancer); assay type: cell-based, human; conditions: Homo sapiens; MDA-MB-468 (Breast Cancer); read-out: GI50
CCRF-CEM = assay: NCI-60 growth inhibition: CCRF-CEM (Leukemia); assay type: cell-based, human; conditions: Homo sapiens
IGROV1 = assay: NCI-60 growth inhibition: IGROV1 (Ovarian Cancer); assay type: cell-based, human; conditions: Homo sapiens, IGROV-1
MDA-MB-435 = assay: NCI-60 growth inhibition: MDA-MB-435 (Melanoma); assay type: cell-based, human; conditions: Homo sapiens
OVCAR-3 = assay: NCI-60 growth inhibition: OVCAR-3 (Ovarian Cancer); assay type: cell-based, human; conditions: Homo sapiens
UACC-62 = assay: NCI-60 growth inhibition: UACC-62 (Melanoma); assay type: cell-based, human; conditions: Homo sapiens
SF-268 = assay: NCI-60 growth inhibition: SF-268 (CNS Cancer); assay type: cell-based, human; conditions: Homo sapiens
RXF 393 = assay: NCI-60 growth inhibition: RXF 393 (Renal Cancer); assay type: cell-based, human; conditions: Homo sapiens
DU-145 = assay: NCI-60 growth inhibition: DU-145 (Prostate Cancer); assay type: cell-based, human; conditions: Homo sapiens
[1] = tested on: MV4-11 cell line (myelomonocytic leukemia); conditions: MV4-11 cells, 24 h
SK-MEL-2 = assay: NCI-60 growth inhibition: SK-MEL-2 (Melanoma); assay type: cell-based, human; conditions: Homo sapiens
A498 = assay: NCI-60 growth inhibition: A498 (Renal Cancer); assay type: cell-based, human; conditions: Homo sapiens
ACHN = assay: NCI-60 growth inhibition: ACHN (Renal Cancer); assay type: cell-based, human; conditions: Homo sapiens
SNB-19 = assay: NCI-60 growth inhibition: SNB-19 (CNS Cancer); assay type: cell-based, human; conditions: Homo sapiens
[2] = Ibuprofen-TDZD analogs (Table 3)

In the case of `C=C1C(=O)O[C@H]2[C@H]1CC/C(COC(=O)NCc1ccc(Cn3c(=O)sn(CCI)c3=O)cc1)=C\CC[C@@]1(C)O[C@@H]21` [BSK-187], the GI50 (OVCAR-4) was 2.02 µM, the GI50 (NCI-H23) was 3.46 µM and the GI50 (M14) was 1.82 µM. It also gave a GI50 (MCF7) of 1.71 µM, a GI50 (BT-549) of 2.4 µM and a GI50 (NCI-H522) of 1.72 µM. The GI50 (RPMI-8226) was 1.98 µM, the GI50 (HOP-92) was 1.38 µM and the GI50 (TK-10) was 1.91 µM. For the same compound, the GI50 (UO-31) was 1.65 µM, the GI50 (MOLT-4) was 1.35 µM and the GI50 (NCI-H460) was 6.42 µM. The GI50 (OVCAR-5) was 3.28 µM, the GI50 (OVCAR-8) was 4.55 µM and the GI50 (HS 578T) was 7.29 µM. The GI50 (LOX IMVI) was 1.69 µM, the GI50 (786-0) was 1.82 µM and the GI50 (SW-620) was 1.66 µM. It also gave a GI50 (EKVX) of 2.11 µM, a GI50 (COLO 205) of 1.86 µM and a GI50 (MDA-MB-231/ATCC) of 1.77 µM. The GI50 (SK-MEL-28) was 2.06 µM, the GI50 (HCT-116) was 1.76 µM and the GI50 (HCT-15) was 1.91 µM. The GI50 (SN12C) was 2.16 µM, the GI50 (UACC-257) was 2.24 µM and the GI50 (PC-3) was 1.75 µM. For the same compound, the GI50 (SK-MEL-5) was 5.37 µM, the GI50 (MALME-3M) was 1.68 µM and the GI50 (CAKI-1) was 3.79 µM. It also gave a GI50 (HT29) of 2.1 µM, a GI50 (T-47D) of 1.32 µM and a GI50 (K-562) of 0.65 µM. The GI50 (SF-539) was 1.72 µM, the GI50 (U251) was 4.67 µM and the GI50 (MDA-MB-468) was 1.25 µM. For the same compound, the GI50 (CCRF-CEM) was 0.5 µM, the GI50 (IGROV1) was 2.08 µM and the GI50 (MDA-MB-435) was 2.45 µM. For the same compound, the GI50 (OVCAR-3) was 1.64 µM, the GI50 (UACC-62) was 1.98 µM and the GI50 (SF-268) was 2.41 µM. The GI50 (RXF 393) was 1.61 µM, the GI50 (DU-145) was 1.82 µM and the “LD50, 7AAD (μM) 24 h” value ([1]; MMB-TDZD analogs (Table 2)) was 2.37 µM. The “LD50, Alamar blue (μM) 24 h” value ([1]; MMB-TDZD analogs (Table 2)) was 1.0 µM, the “LD50, YOPRO (μM) 24 h” value ([1]; MMB-TDZD analogs (Table 2)) was 1.21 µM and the GI50 (SK-MEL-2) was 11.7 µM. The GI50 (A498) was 4.44 µM, the GI50 (ACHN) was 1.89 µM and the GI50 (SNB-19) was 6.88 µM.
For `CCCCCn1sc(=O)n(Cc2ccc(CNC(=O)C(C)c3ccc(CC(C)C)cc3)cc2)c1=O` (stereo not drawn) [BSK-235], the “LD50, 7AAD (μM) 24 h” value [1, 2] was 2.54 µM, the “LD50, Alamar blue (μM) 24 h” value [1, 2] was 3.50 µM and the “LD50, YOPRO (μM) 24 h” value [1, 2] was 3.2 µM.
For `CC(C)Cc1ccc(C(C)C(=O)NCc2ccc(Cn3c(=O)sn(CCCCl)c3=O)cc2)cc1` (stereo not drawn) [BSK-236], the “LD50, 7AAD (μM) 24 h” value [1, 2] was 1.75 µM, the “LD50, Alamar blue (μM) 24 h” value [1, 2] was 2.50 µM and the “LD50, YOPRO (μM) 24 h” value [1, 2] was 1.77 µM.
With `CCCCn1sc(=O)n(Cc2ccc(CNC(=O)C(C)c3ccc(CC(C)C)cc3)cc2)c1=O` (stereo not drawn) [BSK-238] the “LD50, 7AAD (μM) 24 h” value [1, 2] was 11.2 µM, the “LD50, Alamar blue (μM) 24 h” value [1, 2] was 10.00 µM and the “LD50, YOPRO (μM) 24 h” value [1, 2] was 10.9 µM.
`CC(C)Cc1ccc(C(C)C(=O)NCc2ccc(Cn3c(=O)sn(-c4ccccc4)c3=O)cc2)cc1` (stereo not drawn) [BSK-239] was tested, and the “LD50, 7AAD (μM) 24 h” value [1, 2] was 4.91 µM, the “LD50, Alamar blue (μM) 24 h” value [1, 2] was 4.70 µM and the “LD50, YOPRO (μM) 24 h” value [1, 2] was 4.24 µM.
For `CC(C)Cc1ccc(C(C)C(=O)NCc2ccc(Cn3c(=O)sn(CCCI)c3=O)cc2)cc1` (stereo not drawn) [BSK-260], the “LD50, 7AAD (μM) 24 h” value [1, 2] was 1.42 µM, the “LD50, Alamar blue (μM) 24 h” value [1, 2] was 1.49 µM and the “LD50, YOPRO (μM) 24 h” value [1, 2] was 1.48 µM.

— US20230125667A1, “NOVEL TDZD ANALOGS AS AGENTS THAT DELAY, PREVENT, OR REVERSE AGE-ASSOCIATED DISEASES AND AS ANTI-CANCER AND ANTILEUKEMIC AGENTS” (United States Government as represented by the Department …, priority 2020, published 2023)
